Assays:
Assay type in all cases: in vivo, rat
[1] = Body weight of old rats fed supplemented diets; settings: for Final BW: body weight at end of supplementation; for Initial BW: body weight at start of supplementation (baseline), age 21 months; for BW change: rat, in vivo
Excerpt: (§1) A cohort of male Wistar rats born and breed in a non-specific-pathogen-free animal facility (Unité de Nutrition Comparée, INRA Theix) was used for the study. When rats were 18 month old they were weighted monthly to evaluate their body weight change and blood was sampled in order to quantify inflammatory markers (acute phase proteins: α2-macroglobulin and fibrinogen). At the age of 21 months, rats were divided in two groups matched for body weight, body weight loss, and inflammatory status. Rats were fed with supplemented diets, starting at the age of 21 months and for 14 weeks. The cysteine diet consisted in the commercial pelleted diet A04 (SAFE/UAR, Scientific Animal Food and Engineering, Villemoisson-sur-Orge, France) supplemented with 4.0 g of L-cysteine (Sigma) per kg, and the control diet was supplemented with 2.9 g of L-alanine (Jerafrance) per kg (iso-nitrogenous diets). Experimental diets have been prepared at the Unite Préparation Aliments Expérimentaux, INRA Jouy-en-Josas.
The decrease accelerated at the end of the experiment since body weights of the two last weeks were different from each of the previous ones.

old rats [2] = test: Food intake of old rats fed supplemented diets for 14 weeks; settings: for decrease in food intake per week: male Wistar rats, supplemented diet from age 21 months for 14 weeks, linear regression
Excerpt: as §1
Food intake (FIG. 4) decreased with time and was lower for the alanine diet.

[3] = Skeletal muscle and organ weights of old rats fed supplemented diets; settings: for Colon weight / EDL weight / Gastrocnemius weight / Kidneys weight / Liver weight / Small intestine weight / Soleus weight / Tibialis weight: end of supplementation
Excerpt: as §1

old rats [4] = test: Survival of old rats fed supplemented diets (Kaplan-Meier, log-rank test); settings: male Wistar rats, supplemented diet from age 21 months for 14 weeks; log-rank test=0.054, P=0.816
Excerpt: as §1
Survival curves were generated by Kaplan-Meier method (FIG. 2) and compared by the log-rank test in order to analyze the effect of cysteine supplementation on mortality.

SMILES | Final BW [1] | Initial BW [1] | BW change [1] | decrease in food intake per week (old rats [2]) | Colon weight [3] | EDL weight [3] | Gastrocnemius weight [3] | Kidneys weight [3] | Liver weight [3] | Small intestine weight [3] | Soleus weight [3] | Tibialis weight [3] | effect on decrease in food intake associated with aging (old rats [2]; 4 g cysteine per kg supplemented diet, rats about 22.5 months old) | liver weight compared with control rats ([3]; cysteine supplemented rats vs alanine control) | mortality rate (old rats [4])
C[C@H](N)C(=O)O [Alanine, L-alanine, reference compound] | 595 ± 13 g | 657 ± 10 g | −7.03 ± 1.60 %/13 wk | 0.96 % per week | 2.68 ± 0.06 g | 222 ± 4 mg | 2.51 ± 0.04 g | 4.32 ± 0.19 g | 18.4 ± 0.5 g | 11.4 ± 0.3 g | 177 ± 3 mg | 888 ± 16 mg | – | – | –
N[C@@H](CS)C(=O)O [Cysteine, L-cysteine] | 613 ± 12 g | 661 ± 10 g | −6.27 ± 1.18 %/13 wk | unchanged | 2.76 ± 0.07 g | 228 ± 4 mg | 2.51 ± 0.04 g | 4.31 ± 0.17 g | 20.0 ± 0.4 g | 12.0 ± 0.2 g | 178 ± 4 mg | 889 ± 18 mg | blunts the decrease in food intake | higher liver weight than control rats | did not change
